Laboratory results as given in patent publication US20080063628A1, “METHODS TO PROMOTE CELL DIFFERENTIATION” (priority 2006, published 2008).

System: amniotic fluid-derived cell line
Assay: Single trichostatin A dose, 144 h follow-up, gene expression by RT-PCR (Example 6)
Format: cell-based, human
Details: 500 nM once at 0 h
Procedure: Several cell lines obtained from different amniotic fluid specimens (see Example 14) and pancreas donors (see Example 13) were tested with similar results. Two lines at similar passage number but derived from different amniotic fluid specimens are shown in Table VI-A and Table VI-B for this example. One of these cell lines was also used in examples 2 and 4 above. In addition, this example also contains comparison data in Table VI-C and Table VI-D for a single pancreatic-derived stromal line grown to early and late passage number.
Amniotic fluid derived cells or pancreatic-derived stromal cells were seeded into 24-well tissue culture plates at a density of 5000/cm^2 and cultured in AMNIOMAX (Invitrogen) or DMEM with 10% FBS, respectively, under standard cell culture conditions until confluent. After the cells reached confluency, amniotic fluid derived cells were treated once at time 0 hours with 500 nM trichostatin A. Pancreas-derived stromal cells were treated once at time 0 hours with 1.25 μM trichostatin A. Samples for RT-PCR were taken daily from zero to six days at the times indicated in Table VI.
RNA samples were obtained from the treated cultures up to 144 hours after the initial addition of trichostatin A or DMSO. Culture media was removed, the cells were washed with PBS, and RLT lysis buffer containing β-mercaptoethanol (Qiagen) was added. During culture, the medium was not changed nor was freshly prepared trichostatin A added. RNA was purified using the RNeasy Mini Kit (Qiagen), and RNA quantity and quality was determined using a spectrophotometer. cDNA was made using the iScript cDNA synthesis kit (BioRad).
Samples of 20 ng cDNA were used in each reaction to determine the expression levels of the following genes in amniotic fluid-derived cells: Gata1, HNF-3 beta, Pdx-1, insulin, and Sox17. Similarly, samples of 20 ng cDNA were used in each reaction to determine the expression level of the following genes in pancreatic-derived stromal cells: glucagon, HNF-3 beta, insulin and Pdx-1. Real-Time PCR was performed on the Applied Biosystems 7500, and data was analyzed using the accompanying software according to the methods described in Example 15.
Real-time PCR amplifcation and quantitative analysis. Unless otherwise stated, all reagents were purchased from Applied Biosystems. Real-time PCR reactions were performed using the ABI PRISM™ 7500 Sequence Detection System. TAQMAN™ FAST UNIVERSAL PCR MASTER MIX™ (ABI, CA) was used with 20 ng of reverse transcribed RNA in a total reaction volume of 20 μl. Each cDNA sample was run in duplicate to allow correction of pipetting errors. Primers and FAM-labeled TAQMAN™ probes were used at concentrations of 200 nM. The level of expression for each target gene was normalized using the pre-developed Applied Biosystem's human glyceraldehyde-3-phosphate dehydrogenase (GAPDH) endogenous control kit. Primers and probes were designed using either ABI PRISM PRIMER EXPRESS™ software or a pre-developed ABI gene analysis kit. For each gene, either one of the primers or the probe were designed to be exon-boundary spanning. This eliminated the possibility of the primers/probe binding to any genomic DNA present. The primer and probe sets are listed as follows: Pdx-1 (Hs00426216), Insulin (Hs00355773), glucagon (Hs00174967), and FoxA2 (HNF 3-beta) (Hs00232764). The remaining primers were designed using the PRIMERS program (ABI, CA). After an initial 95° C. incubation for 20 sec, samples were cycled 40 times in two stages: a denaturation step at 95° C. for 3 sec, followed by an annealing/extension step at 60° C. for 30 sec.
For each primer/probe set, a cycle time value was determined as the cycle number at which the fluorescence intensity of the PCR reaction reached a specific value in the middle of the exponential region of amplification. An increase in expression of a gene corresponded to a decrease in the number of cycles required for the fluorescence intensity to reach this value.

CC(/C=C/C(=O)NO)=C\[C@@H](C)C(=O)c1ccc(N(C)C)cc1 [trichostatin A]
Gata1 gene expression (24 hrs): nd (not detectable at >40 cycles by RT-PCR)
HNF (HNF-3 beta) gene expression (24 hrs): +++ (detectable at less than 35 cycles by RT-PCR with SE less than 0.9)
Insulin gene expression (24 hrs): nd (not detectable at >40 cycles by RT-PCR)
Pdx-1 gene expression (24 hrs): + (detectable between 35 cycles and 40 cycles by RT-PCR)
sox17 gene expression (24 hrs): +++ (detectable at less than 35 cycles by RT-PCR with SE less than 0.9)
Gata1 gene expression (48 hrs): nd (not detectable at >40 cycles by RT-PCR)
HNF (HNF-3 beta) gene expression (48 hrs): +++ (detectable at less than 35 cycles by RT-PCR with SE less than 0.9)
Insulin gene expression (48 hrs): nd (not detectable at >40 cycles by RT-PCR)
Pdx-1 gene expression (48 hrs): nd (not detectable at >40 cycles by RT-PCR)
sox17 gene expression (48 hrs): +++ (detectable at less than 35 cycles by RT-PCR with SE less than 0.9)
Gata1 gene expression (72 hrs): nd (not detectable at >40 cycles by RT-PCR)
HNF (HNF-3 beta) gene expression (72 hrs): + (detectable between 35 cycles and 40 cycles by RT-PCR)
Insulin gene expression (72 hrs): + (detectable between 35 cycles and 40 cycles by RT-PCR)
Pdx-1 gene expression (72 hrs): nd (not detectable at >40 cycles by RT-PCR)
sox17 gene expression (72 hrs): +++ (detectable at less than 35 cycles by RT-PCR with SE less than 0.9)
Gata1 gene expression (96 hrs): nd (not detectable at >40 cycles by RT-PCR)
HNF (HNF-3 beta) gene expression (96 hrs): nd (not detectable at >40 cycles by RT-PCR)
Insulin gene expression (96 hrs): + (detectable between 35 cycles and 40 cycles by RT-PCR)
Pdx-1 gene expression (96 hrs): nd (not detectable at >40 cycles by RT-PCR)
sox17 gene expression (96 hrs): +++ (detectable at less than 35 cycles by RT-PCR with SE less than 0.9)
Gata1 gene expression (120 hrs): nd (not detectable at >40 cycles by RT-PCR)
HNF (HNF-3 beta) gene expression (120 hrs): + (detectable between 35 cycles and 40 cycles by RT-PCR)
Insulin gene expression (120 hrs): + (detectable between 35 cycles and 40 cycles by RT-PCR)
Pdx-1 gene expression (120 hrs): nd (not detectable at >40 cycles by RT-PCR)
sox17 gene expression (120 hrs): +++ (detectable at less than 35 cycles by RT-PCR with SE less than 0.9)
Gata1 gene expression (144 hrs): nd (not detectable at >40 cycles by RT-PCR)
HNF (HNF-3 beta) gene expression (144 hrs): nd (not detectable at >40 cycles by RT-PCR)
Insulin gene expression (144 hrs): + (detectable between 35 cycles and 40 cycles by RT-PCR)
Pdx-1 gene expression (144 hrs): nd (not detectable at >40 cycles by RT-PCR)
sox17 gene expression (144 hrs): +++ (detectable at less than 35 cycles by RT-PCR with SE less than 0.9)
